As usually defined, the EC50 is the concentration at which the effect is half-maximal. By AC50 is commonly meant the concentration at which the activity in the assay is half-maximal. For orientation: IC50 means the concentration needed to halve the response being measured. As a reminder, the CC50 is the concentration giving 50% cytotoxicity.

Each structure is given as a SMILES string. Calls of active or inactive are those of the source.

The results in this text go back to ChEMBL document CHEMBL1201862, “PubChem BioAssay data set” (2004).

Series [1] deals with T1, Heat shock factor protein 1 (Mus musculus, UniProt P38532).
T1 sequence (P38532 whole entry): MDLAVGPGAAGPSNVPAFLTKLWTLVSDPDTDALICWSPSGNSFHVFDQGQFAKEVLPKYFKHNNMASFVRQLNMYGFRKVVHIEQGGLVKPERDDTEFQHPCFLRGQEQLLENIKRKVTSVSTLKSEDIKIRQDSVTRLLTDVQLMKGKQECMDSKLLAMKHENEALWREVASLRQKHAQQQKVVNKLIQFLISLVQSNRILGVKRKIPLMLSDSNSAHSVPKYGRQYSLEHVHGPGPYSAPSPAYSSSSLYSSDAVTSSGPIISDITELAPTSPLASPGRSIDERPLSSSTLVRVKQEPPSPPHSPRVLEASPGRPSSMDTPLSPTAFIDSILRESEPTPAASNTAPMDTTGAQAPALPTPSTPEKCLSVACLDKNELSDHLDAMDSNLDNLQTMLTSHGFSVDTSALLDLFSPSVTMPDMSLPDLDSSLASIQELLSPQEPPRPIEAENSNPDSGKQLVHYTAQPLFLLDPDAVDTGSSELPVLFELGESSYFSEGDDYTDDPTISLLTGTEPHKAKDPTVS
Briefly: decrease of HSF1-responsive luciferase luminescence – cell-based, NIH3T3, dose retest, confirmation (AID 2382).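 Also: NIH3T3 fibroblasts with HSF1-driven luciferase reporter stressed by proteasome inhibitor MG132; luminescence from HSF1-driven luciferase expression after 8 hours of MG132 stress.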 The format is functional.

Series [2] has as its target T2, Zinc finger protein mex-5 (Caenorhabditis elegans, UniProt Q9XUB2).
T2 sequence (Q9XUB2 whole entry): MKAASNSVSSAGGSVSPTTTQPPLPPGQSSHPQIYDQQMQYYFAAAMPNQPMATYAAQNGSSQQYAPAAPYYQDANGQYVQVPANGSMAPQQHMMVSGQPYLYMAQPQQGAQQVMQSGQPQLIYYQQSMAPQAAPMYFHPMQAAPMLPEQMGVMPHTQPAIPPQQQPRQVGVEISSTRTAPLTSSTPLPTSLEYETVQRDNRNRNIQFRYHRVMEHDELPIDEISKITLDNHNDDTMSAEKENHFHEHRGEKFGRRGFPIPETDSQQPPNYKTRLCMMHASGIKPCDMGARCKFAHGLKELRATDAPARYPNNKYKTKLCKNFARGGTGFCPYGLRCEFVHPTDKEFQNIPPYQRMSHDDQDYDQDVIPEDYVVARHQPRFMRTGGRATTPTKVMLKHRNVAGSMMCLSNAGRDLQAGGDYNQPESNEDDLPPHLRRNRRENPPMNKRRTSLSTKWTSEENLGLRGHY
Briefly: potency of MEX-5 RNA-binding blockers – biochemical, C. elegans, fluorescence polarization, dose response (AID 1960). (In general: Fluorescence polarisation rises when a labelled molecule tumbles more slowly, as on binding a larger partner.)

For series [3], the target named is T3, RNA-binding protein pos-1 (Caenorhabditis elegans, UniProt G5EF15).
T3 sequence (G5EF15 whole entry): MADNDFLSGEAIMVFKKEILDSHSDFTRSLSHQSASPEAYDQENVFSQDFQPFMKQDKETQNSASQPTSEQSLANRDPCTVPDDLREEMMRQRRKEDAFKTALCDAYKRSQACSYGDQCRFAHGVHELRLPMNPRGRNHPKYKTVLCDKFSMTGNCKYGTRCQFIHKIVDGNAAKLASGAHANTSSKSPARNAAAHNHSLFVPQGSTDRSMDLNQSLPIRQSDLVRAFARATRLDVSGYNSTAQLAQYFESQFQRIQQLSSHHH
In words: disruptors of C. elegans POS-1 RNA interaction – biochemical, fluorescence polarization, dose response (AID 1964).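 Also: purified POS-1 fused to maltose binding protein made in E. coli; potency of compounds blocking POS-1 binding to fluorescent RNA.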

For series [4], the target named is Cytochrome P450 2C9 (Homo sapiens, UniProt P11712).
Series [5] deals with Cytochrome P450 3A4 (Homo sapiens, UniProt P08684).
The target of series [6] is T4, Cytochrome P450 1A2 (Homo sapiens, UniProt P05177).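 Also: PubChem cytochrome P450 panel assay, CYP1A2 panel member.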
T4 sequence (P05177 whole entry): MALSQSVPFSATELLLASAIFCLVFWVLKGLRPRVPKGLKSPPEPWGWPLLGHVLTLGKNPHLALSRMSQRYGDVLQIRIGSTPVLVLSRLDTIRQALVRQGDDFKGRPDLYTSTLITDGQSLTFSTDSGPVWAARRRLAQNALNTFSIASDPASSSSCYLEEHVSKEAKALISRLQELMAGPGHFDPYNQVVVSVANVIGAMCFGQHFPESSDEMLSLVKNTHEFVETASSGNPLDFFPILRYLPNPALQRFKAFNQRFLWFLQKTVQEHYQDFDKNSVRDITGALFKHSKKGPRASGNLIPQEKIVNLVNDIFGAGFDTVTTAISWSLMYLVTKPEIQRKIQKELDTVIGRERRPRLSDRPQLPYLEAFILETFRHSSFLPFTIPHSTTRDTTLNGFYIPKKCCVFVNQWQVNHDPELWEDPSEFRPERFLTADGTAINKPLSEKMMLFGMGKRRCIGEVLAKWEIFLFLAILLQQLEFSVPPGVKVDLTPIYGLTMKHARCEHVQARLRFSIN

Series [7] is described as follows: cells. The format is functional.
The subject of series [8] is INS1. In words: INS-1E survival protection against cytokine death – cell-based, luminescence, retest, dose response (AID 449756).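 Also: cell death triggered by IL-1 beta plus TNF-alpha plus IFN-gamma mixture; protective hits raise ATP signal compared with cytokine alone wells.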 In kind it is functional. The following applies: Rattus norvegicus.
Series [9] in a line: THP-1 cell cytotoxicity, dose response, cytotoxicity control for non-replicating M. tuberculosis project (AID 489025). The format is functional.
The target of series [10] is Cytochrome P450 2D6 (Homo sapiens, UniProt P10635).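 Also: CYP2D6 member of a cytochrome P450 panel assay.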
The target in series [11] is T5, High affinity choline transporter 1 (Homo sapiens, UniProt Q9GZV3).
T5 sequence (Q9GZV3 whole entry): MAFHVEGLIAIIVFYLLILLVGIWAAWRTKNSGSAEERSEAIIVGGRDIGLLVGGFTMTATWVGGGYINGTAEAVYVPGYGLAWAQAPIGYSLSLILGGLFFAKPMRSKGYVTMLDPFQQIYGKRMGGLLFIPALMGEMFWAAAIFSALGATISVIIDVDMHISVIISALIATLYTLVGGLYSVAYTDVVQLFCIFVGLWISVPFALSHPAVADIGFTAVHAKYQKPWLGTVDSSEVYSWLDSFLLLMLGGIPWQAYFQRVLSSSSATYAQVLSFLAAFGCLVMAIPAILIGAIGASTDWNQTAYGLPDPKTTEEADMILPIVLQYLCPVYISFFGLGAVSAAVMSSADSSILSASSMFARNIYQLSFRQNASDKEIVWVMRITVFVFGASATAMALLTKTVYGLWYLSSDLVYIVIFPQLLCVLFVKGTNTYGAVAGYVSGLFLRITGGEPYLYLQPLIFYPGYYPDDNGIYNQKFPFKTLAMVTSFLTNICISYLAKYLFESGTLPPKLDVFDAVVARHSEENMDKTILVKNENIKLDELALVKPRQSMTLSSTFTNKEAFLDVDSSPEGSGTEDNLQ
Briefly: human choline transporter blockers, potency – cell-based, 5-point CRC, membrane potential dye, dose response (AID 504840). The format is functional.

Series [12] deals with Cytochrome P450 2C19 (Homo sapiens, UniProt P33261). In words: Cytochrome panel assay with activity outcomes. Panel member name: p450-cyp2c19 Compounds with AC50 equal or less than 10 uM are considered active. In kind it is functional.
The target in series [13] is Nonstructural protein 1 (Influenza A virus, UniProt Q194T2). In kind it is functional, Influenza A virus (A/California/07/2009(H1N1)).
The target in series [14] is Mu-type opioid receptor (Homo sapiens, UniProt P35372). Briefly: Counterscreen for agonists of heterodimerization of the mu 1 (OPRM1) and delta 1 (OPRD1) opioid receptors: Luminescence-based cell-based high throughput dose response assay to identify agonists of OPRM1 homodimerization. In kind it is functional. A general note: A counterscreen serves to expose hits that act by an unwanted route or on another target.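 Also: U2OS cells expressing OPRM1 and beta-arrestin as split beta-galactosidase partners.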

In series [15] the target is 5-hydroxytryptamine receptor 5A (Homo sapiens, UniProt P47898). In words: Counterscreen for agonists of OPRM1-OPRD1 heterodimerization: luminescence-based cell-based high throughput dose response assay to identify agonists of 5-hydroxytryptamine (serotonin) 5A receptor (HTR5A). [Related pubchem assays (depositor defined):AID504326, AID504355, AID504692, AID504904, AID504905]. The format is functional.

Series [16] addresses Delta-type opioid receptor (Homo sapiens, UniProt P41143). In words: Counterscreen for agonists of heterodimerization of the mu 1 (OPRM1) and delta 1 (OPRD1) opioid receptors: Luminescence-based cell-based high throughput dose response assay to identify agonists of OPRD1 homodimerization. [Related pubchem assays (depositor defined):AID504326, AID504355, AID504692, AID504904, AID504905]. The format is functional.

Sequence of Nonstructural protein 1 (Q194T2 whole entry): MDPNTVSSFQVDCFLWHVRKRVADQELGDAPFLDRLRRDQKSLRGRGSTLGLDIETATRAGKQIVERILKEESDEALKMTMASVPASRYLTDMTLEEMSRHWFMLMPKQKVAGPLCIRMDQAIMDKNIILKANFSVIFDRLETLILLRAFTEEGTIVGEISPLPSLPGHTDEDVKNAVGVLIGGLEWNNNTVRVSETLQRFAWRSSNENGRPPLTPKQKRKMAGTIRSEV
Sequence of Delta-type opioid receptor (P41143 whole entry): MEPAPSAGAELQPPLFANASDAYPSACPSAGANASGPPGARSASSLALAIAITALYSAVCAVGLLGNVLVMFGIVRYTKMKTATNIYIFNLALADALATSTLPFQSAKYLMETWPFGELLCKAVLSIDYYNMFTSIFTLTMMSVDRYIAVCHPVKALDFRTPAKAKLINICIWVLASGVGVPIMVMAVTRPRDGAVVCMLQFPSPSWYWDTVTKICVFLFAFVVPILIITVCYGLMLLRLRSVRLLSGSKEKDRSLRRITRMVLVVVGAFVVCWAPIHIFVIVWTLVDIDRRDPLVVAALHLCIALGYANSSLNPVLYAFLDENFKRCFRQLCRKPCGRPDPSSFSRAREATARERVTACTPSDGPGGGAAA
Sequence of Mu-type opioid receptor (P35372 whole entry): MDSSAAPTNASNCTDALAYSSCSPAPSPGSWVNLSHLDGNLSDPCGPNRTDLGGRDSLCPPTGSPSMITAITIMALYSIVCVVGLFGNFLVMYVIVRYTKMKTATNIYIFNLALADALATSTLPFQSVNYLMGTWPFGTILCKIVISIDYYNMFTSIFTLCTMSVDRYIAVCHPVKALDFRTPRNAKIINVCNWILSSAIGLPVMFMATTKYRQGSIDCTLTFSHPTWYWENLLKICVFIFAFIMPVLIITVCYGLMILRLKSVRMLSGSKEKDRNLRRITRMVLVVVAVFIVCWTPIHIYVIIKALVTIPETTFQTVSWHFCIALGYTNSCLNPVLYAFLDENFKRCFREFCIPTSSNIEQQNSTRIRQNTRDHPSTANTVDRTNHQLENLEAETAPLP
Sequence of 5-hydroxytryptamine receptor 5A (P47898 whole entry): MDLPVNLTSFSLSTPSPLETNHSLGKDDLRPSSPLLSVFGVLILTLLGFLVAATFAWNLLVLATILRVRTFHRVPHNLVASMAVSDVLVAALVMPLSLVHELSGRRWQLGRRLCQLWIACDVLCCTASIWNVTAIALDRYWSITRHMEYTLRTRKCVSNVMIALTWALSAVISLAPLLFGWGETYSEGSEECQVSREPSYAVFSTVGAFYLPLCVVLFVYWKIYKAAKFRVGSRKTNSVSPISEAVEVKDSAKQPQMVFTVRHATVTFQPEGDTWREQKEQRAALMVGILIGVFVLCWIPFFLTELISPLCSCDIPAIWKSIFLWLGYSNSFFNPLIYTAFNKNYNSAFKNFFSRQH
Sequence of Cytochrome P450 2C9 (P11712 whole entry): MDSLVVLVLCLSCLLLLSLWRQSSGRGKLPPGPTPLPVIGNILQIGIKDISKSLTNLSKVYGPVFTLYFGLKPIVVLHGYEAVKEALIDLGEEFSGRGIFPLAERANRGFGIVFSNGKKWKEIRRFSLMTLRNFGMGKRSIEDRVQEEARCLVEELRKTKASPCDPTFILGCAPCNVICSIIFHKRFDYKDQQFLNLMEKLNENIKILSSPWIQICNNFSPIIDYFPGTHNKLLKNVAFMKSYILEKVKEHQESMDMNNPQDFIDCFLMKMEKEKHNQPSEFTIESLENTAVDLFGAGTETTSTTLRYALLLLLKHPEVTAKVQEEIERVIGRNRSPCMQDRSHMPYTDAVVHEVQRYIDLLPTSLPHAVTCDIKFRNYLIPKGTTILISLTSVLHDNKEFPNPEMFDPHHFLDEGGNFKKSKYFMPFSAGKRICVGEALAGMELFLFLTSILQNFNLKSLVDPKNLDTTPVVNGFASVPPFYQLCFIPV
Sequence of Cytochrome P450 2C19 (P33261 whole entry): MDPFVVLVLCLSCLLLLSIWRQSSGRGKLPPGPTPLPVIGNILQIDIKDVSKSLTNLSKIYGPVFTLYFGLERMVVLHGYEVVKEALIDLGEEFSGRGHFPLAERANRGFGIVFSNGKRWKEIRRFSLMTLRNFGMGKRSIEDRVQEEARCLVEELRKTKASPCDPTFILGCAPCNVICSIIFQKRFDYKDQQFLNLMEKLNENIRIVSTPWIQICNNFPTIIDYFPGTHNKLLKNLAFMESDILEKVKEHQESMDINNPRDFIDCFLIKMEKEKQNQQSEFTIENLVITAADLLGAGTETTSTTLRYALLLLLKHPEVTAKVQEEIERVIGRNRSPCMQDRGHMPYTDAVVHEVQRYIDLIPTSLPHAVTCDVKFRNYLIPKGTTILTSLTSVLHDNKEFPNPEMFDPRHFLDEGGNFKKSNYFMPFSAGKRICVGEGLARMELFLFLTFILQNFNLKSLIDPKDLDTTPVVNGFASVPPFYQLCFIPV
Sequence of Cytochrome P450 2D6 (P10635 whole entry): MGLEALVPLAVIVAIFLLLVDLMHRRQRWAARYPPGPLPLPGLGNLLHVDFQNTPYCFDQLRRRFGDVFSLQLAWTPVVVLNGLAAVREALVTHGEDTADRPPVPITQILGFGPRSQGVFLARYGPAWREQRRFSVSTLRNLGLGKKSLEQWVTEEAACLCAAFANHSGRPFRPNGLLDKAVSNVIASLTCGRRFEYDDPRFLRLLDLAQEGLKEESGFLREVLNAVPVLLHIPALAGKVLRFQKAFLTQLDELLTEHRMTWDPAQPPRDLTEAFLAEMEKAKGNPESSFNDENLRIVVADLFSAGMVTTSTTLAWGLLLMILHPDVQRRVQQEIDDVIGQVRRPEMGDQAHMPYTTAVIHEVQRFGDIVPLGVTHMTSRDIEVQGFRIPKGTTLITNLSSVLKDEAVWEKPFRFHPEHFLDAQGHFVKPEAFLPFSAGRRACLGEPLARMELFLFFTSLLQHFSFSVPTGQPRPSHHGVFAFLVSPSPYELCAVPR
Sequence of Cytochrome P450 3A4 (P08684 whole entry): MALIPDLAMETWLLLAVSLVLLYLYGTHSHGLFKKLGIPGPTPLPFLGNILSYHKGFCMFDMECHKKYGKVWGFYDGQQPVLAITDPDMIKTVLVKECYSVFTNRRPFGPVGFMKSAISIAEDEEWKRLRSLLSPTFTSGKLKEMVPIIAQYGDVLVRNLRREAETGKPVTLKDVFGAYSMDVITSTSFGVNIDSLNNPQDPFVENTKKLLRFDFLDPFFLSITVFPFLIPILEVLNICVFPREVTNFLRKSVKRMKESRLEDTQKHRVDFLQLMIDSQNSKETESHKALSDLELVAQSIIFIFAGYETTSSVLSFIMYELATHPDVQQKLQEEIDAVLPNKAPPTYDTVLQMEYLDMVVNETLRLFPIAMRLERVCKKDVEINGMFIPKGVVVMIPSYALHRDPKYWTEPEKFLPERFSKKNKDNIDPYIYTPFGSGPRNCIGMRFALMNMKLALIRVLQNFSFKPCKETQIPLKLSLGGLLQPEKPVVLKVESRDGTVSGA

Turning to `CC1(C)CC(=O)C2=C(C1)OC(N)=C(C#N)C2c1ccccc1` (stereo unspecified), the concentration giving a half-maximal response (EC50) in [1] is reported as > 195 µM (not active); in series [2], > 300 µM (not active); in series [3], > 300 µM (not active).

Take `COc1c2ccoc2nc2c(OC)c(OC[C@H](O)C(C)(C)O)ccc12`: the half-maximal activity concentration (AC50) result was “inconclusive” in [4], 15.8 µM (inconclusive) in series [5] and 10 µM (inconclusive) in series [6].

As to `Cc1[nH]c2ccccc2c1-c1cc(-c2cc(-c3c(C)[nH]c4ccccc34)on2)no1`, in series [4], the AC50 entry is reported as “inconclusive”.

On to `CCOc1cc(-c2sc(Nc3cc(C)ccc3OC)n[n+]2-c2ccccc2)ccc1OC`, for which, in [7], the IC50 was > 50 µM (active). Moreover, the AC50 in [8] was 12.9 µM (active). In addition, the CC50 in series [9] was > 40 µM (active).

As to `Cc1cc(Cl)ccc1OC(C)C(=O)Nc1ccc(S(=O)(=O)Nc2cnc3ccccc3n2)cc1` (stereo unspecified), the AC50 in series [10] was 28.2 µM (inconclusive); in series [12] (read-out: AC50), 14.1 µM (inconclusive). In addition, the IC50 in series [11] was 13.8 µM (active).

For `O=C(NC(=S)NNC(=O)c1ccccc1O)c1cccc([N+](=O)[O-])c1`, the IC50 in series [13] was 15.3 µM (active).

Turning to `CCOC(=O)c1c(C)c(C(=O)N2CCc3ccccc3C2)c(C)n1CC`, the half-maximal inhibitory concentration (IC50) in [11] is 13.8 µM (active).

Take `COc1ccc(CCCc2nc3ccccc3[nH]2)cc1`: the EC50 in series [2] and in series [3] was > 300 µM (not active) in each case.

Take `Cc1c2ccccc2nc2c(F)c(NC(C)C)c(F)c(F)c12`: the EC50 in [2] and in series [3] was > 300 µM (not active) each time.

As to `COc1ccc(Cc2nnc(NN)nc2O)cc1OC`, the IC50 in series [13] is 15.5 µM (active).

In the case of `CN(C)S(=O)(=O)Oc1ccccc1C(=O)Nc1cccc(C(F)(F)F)c1`, in series [4], the AC50 result was “inconclusive”.

On to `CC(=O)N1c2ccc(S(=O)(=O)NCCC(=O)NC3CCCC(C)C3C)cc2CC1C` (stereo unspecified), for which the IC50 in series [11] was 13.2 µM (active).

Regarding `CCOC(=O)C1(CC2CCCCO2)CCN(Cc2nc(-c3cccs3)oc2C)CC1` (stereo unspecified), the EC50 in [14], in series [15] and in [16] was > 92.5 µM (inactive) throughout.

For the molecule `CCc1ccc(NC(=O)Nc2ccc3c(c2)N(C)C(=O)CS3)cc1`, the EC50 in series [14] was 36.7 µM (inactive); in series [15], > 92.5 µM (inactive); in series [16], 35.7 µM (inactive).

For `Cc1ccc(CC(=O)NCC(c2ccco2)N(C)C)cc1C` (stereo unspecified), the EC50 in [14], in [15] and in series [16] was > 92.4 µM (inactive) in each case.

For `O=C(N[C@H]1C/C=C\C[C@H](CC(=O)N(CCO)Cc2ccccc2)C(=O)N[C@H](Cc2c[nH]c3ccccc23)COC1=O)OCC1c2ccccc2-c2ccccc21`, the EC50 in [14], in [15] and in series [16] was > 92.5 µM (inactive) in each case.

As to `COCCNC(=O)C1CC(c2cccc(OC)c2)=NO1` (stereo unspecified), the AC50 result in [4] was “inconclusive”.

With `CCCN(C(=O)c1cn(CC)c2nc(C)ccc2c1=O)c1c(N)n(Cc2ccccc2)c(=O)[nH]c1=O`, the IC50 in [11] is 12.6 µM (active).

Turning to `CC(=O)N/N=C/c1cc([N+](=O)[O-])ccc1OCCOc1ccccc1`, the concentration at half-maximal activity (AC50) result in [4] and in series [12] was “inconclusive” throughout.

As to `CN1CCN(CCC(=O)N/N=C/c2cc([N+](=O)[O-])ccc2O)CC1`, the concentration for half-maximal inhibition (IC50) in series [13] was 17.3 µM (active).

As for `COC(=O)[C@@H]1[C@H]2C[C@H]3c4[nH]c5ccccc5c4CCN3C[C@@H]2CC[C@@H]1O` [YOHIMBINE], the concentration for a half-maximal effect (EC50) in [2] was 103 µM (active); in [3], > 300 µM (not active).
